Like-named read-outs stand apart in the source and are kept apart here.

Holding throughout (format): cell-based
In one test the test system is MCF7 cells. As to the kind of experiment: Inhibition of the proliferation of MCF7 cells (Cell Titer-Glo). Conditions: Homo sapiens, MCF-7 cells, 72 hours, read-out: IC50 value of inhibition effect on the proliferation of MCF7 cells. As to the method: The object of this experiment was to determine the inhibition effect of the compounds on the proliferation activity of MCF7 cells, and the in vitro activity of the compounds was evaluated according to the IC50 value.
After incubation for 24 hours, the medium was removed, then 90 μl of the medium containing 2% FBS and 10 μl of the drug were added to each well, 10 μl of DMSO were added to the control group, and the blank group contained only 100 μl medium containing 2% FBS. The plate was gently shaken and incubated in a incubator at 37° C., 5% CO2. After 72 hours, 50 μl of mixed Cell Titer-Glo (Promega, Cat. No. G7571) were added to each well. The plate was shaken until the ingredients were well mixed, and placed at room temperature for 10 minutes, then the chemiluminescence signal value was determined.
The values of the chemiluminescence signals vs the logarithmic concentrations of the compounds were plotted using Graghpad Prism to obtain IC50 values.
(ATP-based viability assays read luminescence as a measure of living cells.)

The target of another test is ERα (Homo sapiens (Human), UniProt P03372). As to the kind of experiment: Degradation effect on ERα in MCF-7 cells (ERα Duoset ELISA). Conditions: read-out: IC50 value of the degradation effect on ERα. How it is done:
In order to determine the degradation effect on ER induced by the compounds of the present invention, the following method was used to determine the degradation effect of the compounds of the present invention on ER.
MCF-7 cell line (TChu 74, Cell Bank of Chinese Academy of Sciences typical culture preservation Committee)
ERα Duoset Kit (#DYC5715E, R&D System)
MCF-7 cells were incubated in DMEM/F-12 medium containing 10% FBS.
On the first day of the experiment, MCF-7 cells were resuspended in DMEM/F-12 medium containing 10% FBS treated by activated carbon, then inoculated into a 48-well plate with a density of 50,000 cells/well and incubated for 22-24 hours.
On the second day of the experiment, the test compound was diluted with medium and added to a 48-well plate. The ERα-capture antibody was diluted to 1 μg/ml with PBS, and added to a 96-well plate at 100 μl/well. The plate was sealed and coated overnight at room temperature.
On the third day of the experiment, the coated 96-well plate was washed twice with PBS, added with a sealing solution (1% BSA in PBS) at 110 μl/well and sealed for 1 hour at room temperature. The 48-well plate was washed once with PBS, and the residual liquid was removed. Then, 60 μl of lysis (6 M urea, 1 mM EDTA, 0.5% Triton X-100, 1 mM PMSF, Protease Inhibitor cocktail) was added to each well. After lysis on ice for 15 minutes, the diluent (1 mM EDTA, 0.5% TritonX-100 dissolved in PBS) was added. The cell-diluted lysate was transferred to a 96-well plate at 100 μl/well, then the plate was incubated at room temperature for 2 hours. The diluted primary antibody was added after the plate was washed 4 times with a washing liquid (PBST). After incubation for 1 hour, the 96-well plate was washed 4 times, and the second antibody was added, then the plate was incubated for 30 minutes. After the plate was washed with a washing liquid, TMB chromogenic solution was added and incubated for 15 minutes. The reaction was stopped by the addition of 1 M H2SO4, then the light absorption at 450 nm was read.

For the next test, the target named is estrogen receptor (ER) (Homo sapiens (Human), UniProt P03372). Put plainly: Inhibition of the binding of estrogen (E) to estrogen receptor (ER), MCF-7/ERE-luciferase reporter cells. As to conditions: MCF-7/ERE-luciferase cells, 0.1 nM estradiol, 24 hours; read-out: IC50 value of inhibition effect on the binding of E to ER. How it is done:
The inhibition effect of the compounds on the binding of E to ER in vitro was tested by the following method.
The object of this experiment was to determine the inhibition effect of the compounds on the binding of E to ER, and the in vitro activity of the compounds was evaluated according to the IC50 value.
MCF-7/ERE-luciferase cells were inoculated into the MEM medium (hyclone, SH30024.01B) containing 10% charcoal stripped FBS (Moregate, FBSF), 1% sodium pyruvate (Sigma, Cat. No. S8636), 1% nonessential amino acids (Sigma, Cat. No. M7145) and 500 μg/ml G418 in a 96-well plate with a density of 30,000 cells/well, and the cells were incubated under the conditions of 37° C. and 5% CO2. […] After incubation for 24 hours, the medium was removed, then 0.1 nM estradiol (Sigma, Cat. No. E2758) and 10 μl of the drug diluted with the medium were added to each well, and the control group was added with DMSO. The plate was gently shaken and incubated in a incubator at 37° C., 5% CO2. After 24 hours, the cell culture medium was discarded.
The inhibition effect of the compounds of the present invention on the binding of E to ER was tested by the experiment described above.

estrogen receptor (ER), sequence (P03372 whole entry): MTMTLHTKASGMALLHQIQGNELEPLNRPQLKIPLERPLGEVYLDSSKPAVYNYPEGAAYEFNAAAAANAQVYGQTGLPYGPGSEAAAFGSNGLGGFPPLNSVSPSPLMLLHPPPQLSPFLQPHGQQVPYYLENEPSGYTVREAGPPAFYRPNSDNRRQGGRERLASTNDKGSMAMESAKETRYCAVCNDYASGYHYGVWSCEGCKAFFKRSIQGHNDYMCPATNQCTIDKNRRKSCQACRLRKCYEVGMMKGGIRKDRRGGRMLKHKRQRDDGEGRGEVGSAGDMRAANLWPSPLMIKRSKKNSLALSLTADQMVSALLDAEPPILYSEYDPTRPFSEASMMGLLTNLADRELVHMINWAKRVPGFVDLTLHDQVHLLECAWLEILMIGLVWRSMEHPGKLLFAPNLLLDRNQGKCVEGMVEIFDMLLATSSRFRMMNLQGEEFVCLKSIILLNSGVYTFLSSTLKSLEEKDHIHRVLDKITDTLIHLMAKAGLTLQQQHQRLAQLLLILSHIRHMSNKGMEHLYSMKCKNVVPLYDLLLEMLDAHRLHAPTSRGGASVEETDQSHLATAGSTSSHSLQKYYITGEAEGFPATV
ERα, sequence (P03372 whole entry): as above

For `CC1Cc2cc3c(cc2C(c2c(F)cc(/C=C/C(=O)O)cc2F)N1CC(C)(C)F)OCO3` [Example 1, (E)-3-(3,5-difluoro-4-((5S,7R/5R,7S)-6-(2-fluoro-2-methylpropyl)-7-methyl-5,6,7,8-tetrahydro-[1,3]dioxolo[4,5-g]isoquinolin-5-yl)phenyl)acrylic acid], in the test with MCF7 cells, the IC50 stood at 0.12 nM. Besides, at ERα, the DC50 was found to be 0.11 nM.
In the case of `CC1Cc2c(oc3ccccc23)C(c2c(F)cc(/C=C/C(=O)O)cc2F)N1CC(C)(C)F` [Example 4, (E)-3-(3,5-difluoro-4-((1R,3R/1S,3S)-2-(2-fluoro-2-methylpropyl)-3-methyl-1,2,3,4-tetrahydrobenzofuro[2,3-c]pyridin-1-yl)phenyl)acrylic acid], the IC50 in the test on MCF7 cells turned out to be 0.19 nM. The DC50 on ERα (MCF-7 cells) worked out at 0.56 nM.
On the same counts, the results for `CC1Cc2c(sc3ccccc23)C(c2c(F)cc(/C=C/C(=O)O)cc2F)N1CC(C)(C)F` [Example 5, (E)-3-(3,5-difluoro-4-((1R,3R/1S,3S)-2-(2-fluoro-2-methylpropyl)-3-methyl-1,2,3,4-tetrahydrobenzo[4,5]thieno[2,3-c]pyridin-1-yl)phenyl)acrylic acid] are 1.2 nM and 3.94 nM.
Taken in the same sequence, the figures for `CC1Cc2sc3ccccc3c2C(c2c(F)cc(/C=C/C(=O)O)cc2F)N1CC(C)(C)F` [Example 6, (E)-3-(3,5-difluoro-4-((1R,3R/1S,3S)-2-(2-fluoro-2-methylpropyl)-3-methyl-1,2,3,4-tetrahydrobenzo[4,5]thieno[3,2-c]pyridin-1-yl)phenyl)acrylic acid] were 1.91 nM and 1.92 nM.
On the same counts, the results for `CC1Cc2cc(-c3cnn(C(F)F)c3)ccc2C(c2c(F)cc(/C=C/C(=O)O)cc2F)N1CC(C)(C)F` (stereo not shown) [Example 13] are 0.46 nM and 6.93 nM.
For the molecule `CC1Cc2cc(-c3cnn(C)c3)c(F)cc2C(c2c(F)cc(/C=C/C(=O)O)cc2F)N1CC(C)(C)F` [Example 16, (E)-3-(3,5-difluoro-4-((1S,3R/1R,3S)-7-fluoro-2-(2-fluoro-2-methylpropyl)-3-methyl-6-(1-methyl-1H-pyrazol-4-yl)-1,2,3,4-tetrahydroisoquinolin-1-yl)phenyl)acrylic acid], the IC50 in the test with MCF7 cells worked out at 0.47 nM. On ERα (MCF-7 cells), the DC50 was 3.11 nM.
On the same counts, the results for `CCn1cc(-c2cc3c(cc2F)C(c2c(F)cc(/C=C/C(=O)O)cc2F)N(CC(C)(C)F)C(C)C3)cn1` [Example 17, (E)-3-(4-((1S,3R/1R,3S)-6-(1-ethyl-1H-pyrazol-4-yl)-7-fluoro-2-(2-fluoro-2-methylpropyl)-3-methyl-1,2,3,4-tetrahydroisoquinolin-1-yl)-3,5-difluorophenyl)acrylic acid] are 0.34 nM and 1.43 nM.
On to `CCCn1cc(-c2ccc3c(c2)CC(C)N(CC(C)(C)F)C3c2c(F)cc(/C=C/C(=O)O)cc2F)cn1` [Example 18, (E)-3-(3,5-difluoro-4-((1S,3R/1R,3S)-2-(2-fluoro-2-methylpropyl)-3-methyl-6-(1-propyl-1H-pyrazol-4-yl)-1,2,3,4-tetrahydroisoquinolin-1-yl)phenyl)acrylic acid], for which the IC50 in the test with MCF7 cells was determined as 1.03 nM. Besides, the DC50 on ERα (MCF-7 cells) worked out at 4.2 nM.
Taken in the same sequence, the figures for `Cc1ncc(-c2ccc3c(c2)CC(C)N(CC(C)(C)F)C3c2c(F)cc(/C=C/C(=O)O)cc2F)o1` [Example 49, (E)-3-(3,5-difluoro-4-((1S,3R/1R,3S)-2-(2-fluoro-2-methylpropyl)-3-methyl-6-(2-methyloxazol-5-yl)-1,2,3,4-tetrahydroisoquinolin-1-yl)phenyl)acrylic acid] were 1.63 nM and 6.29 nM.
Taken in the same sequence, the figures for `CC1Cc2c(ccc3[nH]ncc23)C(c2c(F)cc(/C=C/C(=O)O)cc2F)N1CC(C)(C)F` [Example 70, (E)-3-(3,5-difluoro-4-((6S,8R/6R,8S)-7-(2-fluoro-2-methylpropyl)-8-methyl-6,7,8,9-tetrahydro-3H-pyrazolo[4,3-f]isoquinolin-6-yl)phenyl)acrylic acid] were 0.14 nM and 0.77 nM.
Consider `CC1Cc2c(ccc3c2OCO3)C(c2c(F)cc(/C=C/C(=O)O)cc2F)N1CC(C)(C)F` [Example 82, (E)-3-(3,5-difluoro-4-((6S,8R/6R,8S)-7-(2-fluoro-2-methylpropyl)-8-methyl-6,7,8,9-tetrahydro-[1,3]dioxolo[4,5-f]isoquinolin-6-yl)phenyl)acrylic acid], for which the IC50 at estrogen receptor (ER) amounted to 13.6 nM; in the test with MCF7 cells it was 4.43 nM.
With `CC1Cc2cc3c(cc2C(c2ccc(/C=C/C(=O)O)cc2)N1CC(C)(C)F)OCO3` (stereo not shown) [Example 83, (E)-3-(4-(6-(2-fluoro-2-methylpropyl)-7-methyl-5,6,7,8-tetrahydro-[1,3]dioxolo[4,5-g]isoquinolin-5-yl)phenyl)acrylic acid], the IC50 on estrogen receptor (ER) was 20.5 nM; in the test with MCF7 cells, 17.5 nM.
Taken in the same sequence, the figures for `CC1Cc2c(oc3cc(Cl)ccc23)C(c2c(F)cc(/C=C/C(=O)O)cc2F)N1CC(C)(C)F` [Example 85, (E)-3-(4-((1R,3R/1S,3S)-7-chloro-2-(2-fluoro-2-methylpropyl)-3-methyl-1,2,3,4-tetrahydrobenzofuro[2,3-c]pyridin-1-yl)-3,5-difluorophenyl)acrylic acid] were 21.9 nM and 7.3 nM.
On the same counts, the results for `C[C@@H]1Cc2cc(-c3ccc4cnccc4c3)ccc2[C@@H](c2c(F)cc(/C=C/C(=O)O)cc2F)N1CC(C)(C)F` [Example 98, (E)-3-(3,5-difluoro-4-((1S,3R)-2-(2-fluoro-2-methylpropyl)-3-methyl-1,2,3,4-tetrahydro-[6,6′-biisoquinolin]-1-yl)phenyl)acrylic acid] are 0.85 nM and 1.83 nM.
Turning to `CC1Cc2c(ccc3[nH]ncc23)C(c2ccc(/C=C/C(=O)O)cc2)N1CC(C)(C)F` [Example 101, (E)-3-(4-((6S,8R/6R,8S)-7-(2-fluoro-2-methylpropyl)-8-methyl-6,7,8,9-tetrahydro-3H-pyrazolo[4,3-f]isoquinolin-6-yl)phenyl)acrylic acid], the IC50 was found to be 3.14 nM at estrogen receptor (ER) and 2.07 nM in the test on MCF7 cells.
Taken in the same sequence, the figures for `CC(C)CN1C(C)Cc2c(ccc3[nH]ncc23)C1c1ccc(/C=C/C(=O)O)cc1` [Example 102, (E)-3-(4-((6R,8R/6S,8S)-7-isobutyl-8-methyl-6,7,8,9-tetrahydro-3H-pyrazolo[4,3-f]isoquinolin-6-yl)phenyl)acrylic acid] were 0.64 nM and 4.99 nM.
Taken in the same sequence, the figures for `CC1Cc2c(ccc3[nH]ncc23)C(c2c(F)cc(/C=C/C(=O)O)cc2F)N1C1CCCC1` [Example 103, (E)-3-(4-((6S,8R/6R,8S)-7-cyclopentyl-8-methyl-6,7,8,9-tetrahydro-3H-pyrazolo[4,3-f]isoquinolin-6-yl)-3,5-difluorophenyl)acrylic acid] were 1.32 nM and 2.95 nM.

The record behind these values is patent publication US10087191B2, “Piperidine derivative and preparation method and pharmaceutical use thereof” (Jiangsu Hengrui Medicine Co., Ltd., priority 2015, dated 2018).
